According to US20210371385A1, “POLYMORPHIC AND AMORPHOUS FORMS OF ISOQUINOLINONE AND METHODS OF USE THEREOF” (Sojournix, Inc., priority 2018, published 2021):
Values after ≈ are worked out from the molar mass of the structure shown. Read-outs that look alike come from different tables or passages of the source.

Experiments:
[1] = Absorption of solid compound dosed orally in rats; type: in vivo, Sprague Dawley rats; settings: for bioavailability: Sprague Dawley, rat, in vivo, oral microsuspension, read-out: Absolute bioavailability
Description: The possibility of dosing SJB-01 orally as a solid was explored in rats, as a means to evaluate the developability of the compound. Clinical relevant doses (1, 5 and 10 mg/kg) were administered to rats as microsuspensions. Furthermore, to explore the role of particle size, a suspension (5 mg/kg) was administered as well for comparison.

[2] = Chemical stability (oxygen, pH, light, PEG 400); type: physicochemical
[3] = Intrinsic Dissolution Rate (IDR); type: physicochemical; settings: FeSSIF media, presence of bile components
Description: The Intrinsic Dissolution Rate (IDR) was calculated for a beta polymorph form of SJB-01. A tablet of the compound was pressed and put into a dissolution chamber. It was subsequently measured how fast the substance was dissolved from the surface into the solvent. Initially, the experiment was performed in a standard buffer (0.001 M HCl pH 3.0), reflecting the stomach conditions at fastened state.
Due to the high impact of bile components on solubilisation of SJB-01, IDR was performed in FeSSIF media, reflecting the fed-state in humans.

[4] = Maximal absorbable dose (MAD) calculation; parameters: species or system humans
Description: The maximal absorbable dose (MAD) of SJB-01, as described by Curatolo (1998), can be calculated according to the following equation: […]
Using this equation, the maximal absorbable dose is 16 mg for SJB-01.

[5] = pKa determination, co-solvent potentiometric titration (Yasuda-Shedlovsky extrapolation); type: physicochemical; settings: 25.4 °C, MeOH co-solvent potentiometric, extrapolated to 0% co-solvent
Description: pKa determination and assignment was completed on SJB-01 (FIG. 1). About 2 mg of SJB-01 (100142-1-1) was titrated three times with varying concentrations of MeOH as co-solvent to generate a Yasuda-Shedlovsky plot (L100142-65-4, FIG. 2 and Table 1). Extrapolation of the Yasuda-Shedlovsky plot to 0% co-solvent determined the pKa's (FIG. 3), which are acidic 5.76, basic 3.03. Acidic pKa is in red and basic pKa is in blue.
(§1) pKa and log P/D data were collected using Pion PULSE Attain software. The Pion PULSE solutions consisted of using ionic strength adjusted water (0.15 M KCl), 0.5 M HCl and […] which were used for all titrations. Purge gas (argon) was used for HEPES (probe validation), KHP (KOH concentration determination), aqueous potentiometric and log P/D potentiometric titrations.
(§2) The Pion PULSE was equipped with an overhead variable speed stirrer, double junction Ag/AgCl pH probe, UV probe with a 1 cm pathlength, Carl-Zeiss spectrophotometer with 256-bit photodiode array, and a temperature probe. The pH of the instrument can range from 1.8-12.2. The compatible co-solvents are MeOH, EtOH, ACN, DMSO and 1,4-dioxane. pKa measurements were completed by either potentiometric or UV-metric methods. log P/D was measured using water saturated 1-octanol as the partitioning solvent. Data was refined using the Pion PULSE refine software.

[6] = in vivo, 140 mg/kg
Description: Formulations for toxicological evaluation of SJB-01 were considered. The highest solubility was obtained with 100% PEG 400 and a mixture of Gelucire and PEG 400. Since a formulation with Gelucire:PEG required increased handling time, including dosing at ˜45° C., 100% PEG 400 was chosen for formulation purpose in the early toxicological evaluation including mini-MTD (maximum tolerated dose) and a 14 days toxicological dosing study. The maximum dose reached was 140 mg/kg-the highest possible dose achievable with PEG 400 as vehicle. […] From a formulation perspective, this can only be done by using Gelucire:PEG as a vehicle, under the assumption that a solution will lead to a higher bioavailability than dosing the compound in a PEG 400 suspension. In the table below, the maximum dose of SJB-01 given on a solubilized form is provided, taking into account the tolerated dose of the vehicle as well.

[7] = Solubility by gravimetric method in 14 solvents; type: physicochemical; settings: for solubility at 2 days: organic solvent or mixture, thermodynamic from solid; for Solubility: Water:DMSO (9:1 vol)
Description: Solubility measurements were done by gravimetric method in 14 different solvents at two temperatures (23° C. and 50° C.). About 25-35 mg solid was dispensed in 2 mL vials and 0.75 mL solvent was added to form a slurry. The slurries were then stirred for two days. The vials were centrifuged and the supernatant was collected for solubility measurement by gravimetric method.

[8] = pKa measured by titration (Example 3); type: physicochemical; settings: measurable detection limit of 2
Description: The pKa value was measured by titration.

[9] = Log P/D determination, pH-metric titration with 1-octanol; type: physicochemical
Description: Log P and log D were determined for SJB-01 free base using 1-octanol as the partition solvent (Table 2). Log P was experimentally determined to be 4.73 which is larger than the predicted value for the structure, the corresponding Bjerrum plot is shown in FIG. 6. A log D profile (FIG. 5) was constructed for SJB-01 based on the distribution of the API at a particular pH.
as §1, §2

[10] = Log P/D7.4 by shake flask method, octanol-buffer; type: physicochemical; settings: pH 7.4, octanol-buffer two phase system
Description: The Log P/D7.4 value was determined by the shake flask method in an octanol-buffer two phase systems.

## CCNn1c(C)c(C(=O)N[C@H](c2ccccc2)C2CC2)c2cccc(F)c2c1=O [SJB-01, 2-Ethylamino-8-fluoro-3-methyl-1-oxo-1,2-dihydro-isoquinoline-4-carboxylic acid ((S)-cyclopropyl-phenyl-methyl)-amide]
[1]; 10 mg/kg
  bioavailability: ~30%
[1]; 1 and 5 mg/kg
  bioavailability: ~20%
[1]; oral, 5 mg/kg, particle size 10 and 50 μm
  Bioavailability, comparison of particle size: no differences in bioavailability
[2]; PEG 400, room temperature, covered from light
  Time stable in PEG 400: at least 4 months
[2]; aqueous solution, extreme light exposure, 24 hr
  Compound decomposed: 100%
[2]; exposed to oxygen and pH 2, 4, 6, and 7.4
  Stability to oxygen and pH: stable
[2]; solid compound, extreme light exposure, 24 hr
  Compound left: ~86%
[3]
  IDR in FeSSIF media versus standard buffer: not further increased
[4]; MAD=S*Ka*SIWV*SITT, S solubility at pH 6.5
  Maximal absorbable dose (MAD): 16 mg
[4]; humans, solubility in 0.001M HCl pH 3.0, data from the β-form
  Maximal absorbable dose (MAD): 16 mg
[4]; humans, solubility in FaSSIF, data from the β-form
  Maximal absorbable dose (MAD): 22 mg
[4]; humans, solubility in FeSSIF (fed state), data from the β-form
  Maximal absorbable dose (MAD): 38 mg
[5]; acidic
  pKa (acidic): 5.76
[5]; acidic, read-out: pKa (acidic)
  pKa: 5.83 ± 0.11
[5]; basic, read-out: pKa (basic)
  pKa: 3.03 ± 0.11
[6]
  Clinical observations at maximum dose reached: no clinical observations
[7]; ACN, 23 °C
  solubility at 2 days: 62 mg/mL (≈ 158 mM)
[7]; ACN, 50 °C
  solubility at 2 days: 99 mg/mL (≈ 252 mM)
[7]; EtOAc, 23 °C
  solubility at 2 days: 42 mg/mL (≈ 107 mM)
[7]; EtOAc, 50 °C
  solubility at 2 days: 67 mg/mL (≈ 170 mM)
[7]; EtOH, 23 °C
  solubility at 2 days: > 42 mg/mL
[7]; IPA:water (85:15 vol), 23 °C
  solubility at 2 days: 27 mg/mL (≈ 68.6 mM)
[7]; IPA:water (85:15 vol), 50 °C
  solubility at 2 days: 60 mg/mL (≈ 152 mM)
[7]; IPAc, 23 °C
  solubility at 2 days: 22 mg/mL (≈ 55.9 mM)
[7]; IPAc, 50 °C
  solubility at 2 days: 37 mg/mL (≈ 94 mM)
[7]; MIBK, 23 °C
  solubility at 2 days: 40 mg/mL (≈ 102 mM)
[7]; MIBK, 50 °C
  solubility at 2 days: 61 mg/mL (≈ 155 mM)
[7]; MtBE, 23 °C
  solubility at 2 days: 8 mg/mL (≈ 20.3 mM)
[7]; MtBE, 50 °C
  solubility at 2 days: 11 mg/mL (≈ 28 mM)
[7]; THF, 23 °C
  solubility at 2 days: > 68 mg/mL
[7]; THF, 50 °C
  solubility at 2 days: > 68 mg/mL
[7]; 23 °C
  Solubility: Nil
[7]; 50 °C
  Solubility: Nil
[7]; acetic acid, 23 °C
  solubility at 2 days: > 72 mg/mL
[7]; acetic acid, 50 °C
  solubility at 2 days: > 72 mg/mL
[7]; acetone, 23 °C
  solubility at 2 days: > 67 mg/mL
[7]; acetone, 50 °C
  solubility at 2 days: > 67 mg/mL
[7]; dioxane, 23 °C
  solubility at 2 days: > 74 mg/mL
[7]; dioxane, 50 °C
  solubility at 2 days: > 74 mg/mL
[7]; ethanol, EtOH, 50 °C
  solubility at 2 days: > 42 mg/mL
[7]; isopropanol (IPA), IPA, 23 °C
  solubility at 2 days: 29 mg/mL (≈ 73.7 mM)
[7]; isopropanol (IPA), IPA, 50 °C
  solubility at 2 days: 64 mg/mL (≈ 163 mM)
[7]; MeOH, 23 °C, lot L100142-1-1
  solubility at 2 days: > 76 mg/mL
[7]; MeOH, 50 °C, lot L100142-1-1
  solubility at 2 days: > 76 mg/mL
[8]
  pKa: < 2
[9]; 1-octanol/water, pH 7.4, pH 7.40, 1-octanol, from log D profile, read-out: log D7.40
  logD: 3.04
[9]; neutral species, 1-octanol:water, 25.3 °C, pH-metric, three titrations
  logP: 4.73 ± 0.14
[10]
  logP: 3.3
